Target: T1, human recombinant mGluR5 (Homo sapiens, UniProt P41594)
T1 construct: expressed in transfected cells; host or cells: HEK 293 cell line, cultured with tetracycline, hygromycin and geneticin; tetracycline is withdrawn 3-7 days before the assay
Assay: positive modulation of mGluR5, calcium based FLIPR assay
Assay type: cell-based
Details: EC50 of the modulation; HEK 293 cell line expressing human recombinant mGluR5; peak height of Ca fluorescence signal after glutamate at approx. 5% basal stimulation; read-out: EC50
Experimental: The positive modulation of mGluR5 is measured in a HEK 293 cell line expressing human recombinant mGluR5 and is detected with calcium based FLIPR assay. The cells are cultured with DMEM supplemented with 10% FCS, 2 μg/mL tetracycline, 100 μg/mL hygromycin and 500 μg/mL gneticin. The cell culture media is exchanged for tetracycline-free cell culture media 3-7 days before the assay. One day before the assay the cell culture medium is exchanged to DMEM without glutamine and phenol red and supplemented with 10% FCS, 100 μg/mL hygromycin and 500 μg/mL geneticin. On the assay day, the medium of the subconfluent cultures is removed and the cells are detached by addition of 2.5 ml EDTA (0.02%) per 175 cm2 culture flask for 1 minute. The cells are resuspend in Ringer solution (140 mM NaCl, 5 mM KCl, 2.5 mM CaCl2, 1.5 mM MgCl2, 5 mM Glucose, 10 mM Hepes; adjusted to pH 7.4 with NaOH), pooled and Ringer solution added to adjust the volume to 50 mL. The cell suspension is centrifuged for 5 min at 1500 U/min (425 g). The supernatant is removed and the cells washed a second time with 50 ml fresh Ringer solution and centrifuged again as before. The supernatant is again removed and the pellet resuspended in Ringer solution to 1,000,000 cells/ml (1×10^6 cells/mL). The cells are plated onto BD BioCoat Poly-D-Lysine 384 well plates (20.000 cells/well; 20 μl/well). The lid covered plates are then incubated until use at 37° C./10% CO2. For dye loading, 20 μl of Calcium-4 assay kit solution (prepared according to the manufacturer's description in Ringer solution) are added to the cells and the plates are incubated for 80 min 37° C. and then 10 min at room temperature. • Controls, Compound dilution and assay execution: • Each assay plate contained wells with “high” and “low” controls:
Low controls 1% DMSO/ringer solution+basal glutamate activation (defined as 100% CTL).
High controls 10 μM CDPPB+basal glutamate activation (defined as 200% CTL).
Test compounds are dissolved and diluted in DMSO to 100-fold the desired concentrations. In a second step, the compounds are diluted in Ringer solution such that the compounds are 4-fold more concentrated than the desired final assay concentration. The final DMSO concentration was 1%.
20 μl of each compound solution are then transferred to the assay plate and the Ca2+ kinetic is measured to determine any intrinsic compound activity. After 5 min incubation in the FLIPR device, the second stimulation with 20 μl of glutamate in Ringer solution (glutamate concentration adjusted to approximately 5% basal stimulation of the maximal possible glutamate effect) is added and the kinetic Ca2+ response of the wells was measured for the modulation effect.
The peak height of the Ca release related fluorescence signal (9-66) is used for the EC50. The EC50 of the modulation is calculated over a nonlinear regression with GraphPad Prism (Table 1).

T1 sequence (P41594 21-1212): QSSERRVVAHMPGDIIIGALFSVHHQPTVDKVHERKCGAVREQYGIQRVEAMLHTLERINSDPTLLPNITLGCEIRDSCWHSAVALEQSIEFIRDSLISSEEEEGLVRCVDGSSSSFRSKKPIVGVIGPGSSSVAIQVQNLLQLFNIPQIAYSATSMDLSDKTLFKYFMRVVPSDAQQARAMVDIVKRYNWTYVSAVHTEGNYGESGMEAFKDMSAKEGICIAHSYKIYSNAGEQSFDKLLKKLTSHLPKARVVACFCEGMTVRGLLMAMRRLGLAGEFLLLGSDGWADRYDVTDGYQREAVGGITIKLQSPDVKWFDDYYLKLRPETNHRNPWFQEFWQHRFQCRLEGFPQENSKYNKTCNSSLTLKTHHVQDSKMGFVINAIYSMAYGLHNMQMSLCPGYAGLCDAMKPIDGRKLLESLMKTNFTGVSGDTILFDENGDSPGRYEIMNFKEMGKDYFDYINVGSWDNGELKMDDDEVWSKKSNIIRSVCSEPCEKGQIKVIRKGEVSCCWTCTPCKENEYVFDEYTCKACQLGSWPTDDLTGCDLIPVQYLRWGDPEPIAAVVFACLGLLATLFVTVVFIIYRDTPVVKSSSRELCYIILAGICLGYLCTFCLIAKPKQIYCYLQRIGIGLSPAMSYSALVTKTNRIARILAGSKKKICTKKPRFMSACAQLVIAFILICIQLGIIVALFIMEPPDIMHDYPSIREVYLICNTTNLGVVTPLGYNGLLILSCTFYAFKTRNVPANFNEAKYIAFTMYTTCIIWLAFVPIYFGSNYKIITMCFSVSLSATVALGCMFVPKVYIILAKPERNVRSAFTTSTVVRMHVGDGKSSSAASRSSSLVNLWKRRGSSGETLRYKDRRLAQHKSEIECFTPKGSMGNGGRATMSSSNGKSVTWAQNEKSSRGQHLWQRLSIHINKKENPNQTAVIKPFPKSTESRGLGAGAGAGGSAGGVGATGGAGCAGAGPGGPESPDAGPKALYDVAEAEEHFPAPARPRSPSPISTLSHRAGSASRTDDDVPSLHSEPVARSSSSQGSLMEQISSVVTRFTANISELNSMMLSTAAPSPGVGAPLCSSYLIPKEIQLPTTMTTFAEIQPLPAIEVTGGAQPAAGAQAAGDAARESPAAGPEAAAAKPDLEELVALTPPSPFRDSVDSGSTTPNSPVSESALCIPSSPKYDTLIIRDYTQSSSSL

EC50	SMILES
626 nM	CC1CN(c2ccccn2)CCN1C(=O)Cn1nc(-c2ccc(F)cc2)nc1-c1ccc(F)cc1 (stereo not shown) [Example 7.03.014.]
305 nM	N#Cc1cccc(N2CCN(C(=O)Cn3nc(-c4ccc(F)cc4)nc3-c3ccc(F)cc3)CC2=O)c1 [Example 7.03.015.]
101 nM	O=C(Cn1nc(-c2ccc(F)cc2)nc1-c1ccc(F)cc1)N1CCN(c2cc(F)ccn2)C(=O)C1 [Example 7.03.016.]
439 nM	Nc1nc2c(o1)CCN(C(=O)Cn1nc(-c3ccc(F)cc3)nc1-c1ccc(F)cc1)CC2 [Example 7.03.019.]
626 nM	O=C(Cn1nc(-c2ccc(F)cc2)nc1-c1ccc(F)cc1)N1Cc2cccnc2C1 [Example 7.03.020.]
228 nM	COc1cccc(C2=CCN(C(=O)Cn3nc(-c4ccc(F)cc4)nc3-c3ccc(F)cc3)CC2)c1 [Example 7.03.021.]
56 nM	O=C(Cn1nc(-c2ccc(F)cc2)nc1-c1ccc(F)cc1)N1CC=C(c2ncccn2)CC1 [Example 7.03.022.]
186 nM	COc1ccc2c(n1)CCN(C(=O)Cn1nc(-c3ccc(F)cc3)nc1-c1ccc(F)cc1)CC2 [Example 7.03.023.]
107 nM	O=C(Cn1nc(-c2ccc(F)cc2)nc1-c1ccc(F)cc1)N1CC=C(c2ccccn2)CC1 [Example 7.03.024.]
97 nM	COc1cc(C2=CCN(C(=O)Cn3nc(-c4ccc(F)cc4)nc3-c3ccc(F)cc3)CC2)ncn1 [Example 7.03.025.]
987 nM	COc1cc(C2CCN(C(=O)Cn3nc(-c4ccc(F)cc4)nc3-c3ccc(F)cc3)CC2)ncn1 [Example 7.03.026.]
739 nM	O=C(Cn1nc(-c2ccc(F)cc2)nc1-c1ccc(F)cc1)N1CCC(c2ccccn2)CC1 [Example 7.03.027.]
117 nM	O=C(Cn1nc(-c2ccc(F)cc2)nc1-c1ccc(F)cc1)N1CCc2ccc(Cl)nc2CC1 [Example 7.03.028.]
37 nM	CCc1nc2c(s1)CCN(C(=O)Cn1nc(-c3ccc(F)cc3)nc1-c1ccc(F)cc1)CC2 [Example 7.03.030.]
1780 nM	O=C(Cn1nc(-c2ccc(F)cc2)nc1-c1ccc(F)cc1)N1CCc2nc(C3CCOCC3)sc2CC1 [Example 7.03.031.]
868 nM	O=C(Cn1nc(-c2ccc(F)cc2)nc1-c1ccc(F)cc1)N1CCc2nc(C3CCCCC3)sc2CC1 [Example 7.03.032.]
474 nM	CC(C)c1nnc(C2CCN(C(=O)Cn3nc(-c4ccc(F)cc4)nc3-c3ccc(F)cc3)CC2)o1 [Example 7.03.033.]
907 nM	O=C(Cn1nc(-c2ccc(F)cc2)nc1-c1ccc(F)cc1)N1CCC(c2nnco2)CC1 [Example 7.03.034.]
170 nM	Cc1cnc(C2CCN(C(=O)Cn3nc(-c4ccc(F)cc4)nc3-c3ccc(F)cc3)CC2)o1 [Example 7.03.035.]
49 nM	Cc1cnc(C2=CCN(C(=O)Cn3nc(-c4ccc(F)cc4)nc3-c3ccc(F)cc3)CC2)o1 [Example 7.03.036.]
312 nM	Cc1nc2c(s1)C(C)CN(C(=O)Cn1nc(-c3ccc(F)cc3)nc1-c1ccc(F)cc1)CC2 (stereo not shown) [Example 7.03.037.]
75 nM	O=C(Cn1nc(-c2ccc(F)cc2)nc1-c1ccc(F)cc1)N1CCC(c2ncco2)CC1 [Example 7.03.038.]
50 nM	COc1nc2c(s1)CCN(C(=O)Cn1nc(-c3ccc(F)cc3)nc1-c1ccc(F)cc1)CC2 [Example 7.03.039.]
54 nM	O=C(Cn1nc(-c2ccc(F)cc2)nc1-c1ccc(F)cc1)N1CC=C(c2ncco2)CC1 [Example 7.03.040.]
161 nM	COc1cccc(N2CCN(C(=O)Cn3nc(-c4ccc(F)cc4)nc3-c3ccc(F)cc3)CC2=O)n1 [Example 7.03.041.]
885 nM	O=C(Cn1nc(-c2ccc(F)cc2)nc1-c1ccc(F)cc1)N1CCN(C2=NCCO2)CC1 [Example 7.03.042.]
139 nM	CC(C)c1nnc(N2CCN(C(=O)Cn3nc(-c4ccc(F)cc4)nc3-c3ccc(F)cc3)CC2)o1 [Example 7.03.043.]
96 nM	CCc1nnc(N2CCN(C(=O)Cn3nc(-c4ccc(F)cc4)nc3-c3ccc(F)cc3)CC2)o1 [Example 7.03.044.]
